These results are taken from PubChem BioAssay (NCI).

Where “and” joins values, the source holds several entries; their conditions need not be identical. Equal values may be shown once.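 Briefly, cells in 96-well plates were exposed to five compound concentrations for 48 h, and endpoints were estimated by linear interpolation. The concentration for 50% growth inhibition is given as GI50. The concentration for full growth arrest is given as TGI.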 A value given as a limit tells only on which side of the number the result lay.

Among the test systems are CCRF-CEM leukemia; ACHN renal; MALME-3M melanoma; OVCAR-3 ovarian; SF-268 CNS; 786-0 renal; RXF 393 renal; OVCAR-5 ovarian; HCC-2998 colon; NCI-H522 lung.
Test in all cases: growth of human tumour cells (NCI), 48 h

Take `CCNc1cc(-c2cccc(OC(F)(F)F)c2)nc2ccc(N3CCCC3)cc12`: the GI50 in the assay on CCRF-CEM leukemia is 2.04 µM; in the assay with ACHN renal it was 2.28 µM; in the assay with MALME-3M melanoma, 1.74 µM; with OVCAR-3 ovarian, 1.56 µM; in the assay on SF-268 CNS, 1.79 µM; in the assay with 786-0 renal, 1.56 µM. In addition, the GI50 is 1.18 µM in the assay with RXF 393 renal, 2.36 µM in the assay with OVCAR-5 ovarian, 2.27 µM in the assay with HCC-2998 colon and 1.45 µM in the assay with NCI-H522 lung. Also, the TGI was 8.69 µM in the assay with CCRF-CEM leukemia; 7.61 µM in the assay on ACHN renal; 3.36 µM in the assay with MALME-3M melanoma; 3.14 µM in the assay on OVCAR-3 ovarian; 3.79 µM with SF-268 CNS; 3.48 µM in the assay on 786-0 renal. The TGI in the assay on RXF 393 renal turned out to be 3.17 µM; in the assay with OVCAR-5 ovarian it was 7.63 µM; in the assay with HCC-2998 colon it was 6.06 µM; in the assay on NCI-H522 lung it was 3.65 µM.

`CCCNC(=O)C1C(=O)C(=O)N(CCC)C1=O` (stereo not given): the TGI in the assay with CCRF-CEM leukemia, with ACHN renal, in the assay with MALME-3M melanoma, in the assay with OVCAR-3 ovarian, in the assay with SF-268 CNS and with 786-0 renal was more than 100 µM throughout. Besides, the TGI in the assay on RXF 393 renal, with OVCAR-5 ovarian, with HCC-2998 colon and with NCI-H522 lung was more than 100 µM each time.

Turning to `CCOC(=O)C(Cc1c[nH]c2c(N(CCO)CCO)cccc12)(NC(C)=O)C(=O)OCC`, the GI50 in the assay with CCRF-CEM leukemia was 59.4 µM and 190 µM; in the assay on ACHN renal it was 119 µM; in the assay on MALME-3M melanoma it was 202 µM; with OVCAR-3 ovarian, 270 µM; in the assay with SF-268 CNS it was more than 1000 µM; in the assay on 786-0 renal, more than 1000 µM. Besides, the GI50 in the assay with RXF 393 renal, in the assay with OVCAR-5 ovarian, in the assay with HCC-2998 colon and in the assay with NCI-H522 lung was more than 1000 µM each time. Also, the TGI in the assay with CCRF-CEM leukemia is 430 µM; in the assay on ACHN renal, more than 1000 µM; in the assay on MALME-3M melanoma, more than 1000 µM; in the assay on OVCAR-3 ovarian, 873 µM; in the assay with SF-268 CNS, more than 1000 µM; with 786-0 renal, more than 1000 µM. Moreover, the TGI with RXF 393 renal, in the assay with OVCAR-5 ovarian, in the assay on HCC-2998 colon and in the assay with NCI-H522 lung was more than 1000 µM in each case.

Turning to `NCCSSCCN`, the TGI in the assay on CCRF-CEM leukemia, in the assay with ACHN renal, with MALME-3M melanoma, in the assay with OVCAR-3 ovarian, in the assay with SF-268 CNS and in the assay on 786-0 renal was more than 100 µM throughout. In addition, the TGI with RXF 393 renal, in the assay with OVCAR-5 ovarian, with HCC-2998 colon and in the assay on NCI-H522 lung was more than 100 µM throughout.

Consider `COC(=O)c1cc2c3ccccc3n3c(=O)c4cc5ccc(N(S(=O)(=O)c6ccc(C)cc6)S(=O)(=O)c6ccc(C)cc6)cc5nc4c(n1)c23`, for which the GI50 was 19.2 µM with CCRF-CEM leukemia; 17.2 µM with ACHN renal; 69.7 µM with MALME-3M melanoma; more than 100 µM with OVCAR-3 ovarian; 39.2 µM with SF-268 CNS; 13.6 µM with 786-0 renal. Also, the GI50 is 13.1 µM in the assay with RXF 393 renal, more than 100 µM in the assay with OVCAR-5 ovarian, more than 100 µM in the assay with HCC-2998 colon and 83.7 µM in the assay with NCI-H522 lung. Besides, the TGI in the assay with CCRF-CEM leukemia was 44.9 µM; in the assay on ACHN renal it was 82.6 µM; in the assay with MALME-3M melanoma it was more than 100 µM; with OVCAR-3 ovarian it was more than 100 µM; with SF-268 CNS it was more than 100 µM; in the assay with 786-0 renal it was 43.9 µM. The TGI in the assay with RXF 393 renal is 37.8 µM; with OVCAR-5 ovarian, more than 100 µM; in the assay on HCC-2998 colon, more than 100 µM; in the assay with NCI-H522 lung, more than 100 µM.

On to `FC(F)(c1ccc2ncccc2c1)c1nnc2ccc(-c3ccncc3)nn12`, for which the GI50 with CCRF-CEM leukemia was more than 100 µM; in the assay on ACHN renal it was 50.2 µM; in the assay with MALME-3M melanoma, more than 100 µM; in the assay on OVCAR-3 ovarian, more than 100 µM; in the assay on SF-268 CNS, 66.5 µM; in the assay with 786-0 renal it was 69.3 µM. For the same compound, the GI50 is 16.4 µM in the assay with RXF 393 renal, more than 100 µM with OVCAR-5 ovarian, more than 100 µM in the assay with HCC-2998 colon and more than 100 µM with NCI-H522 lung. For the same compound, the TGI with CCRF-CEM leukemia, in the assay on ACHN renal, in the assay with MALME-3M melanoma, with OVCAR-3 ovarian, in the assay with SF-268 CNS and with 786-0 renal was more than 100 µM each time. In addition, the TGI is 83.8 µM with RXF 393 renal, more than 100 µM with OVCAR-5 ovarian, more than 100 µM with HCC-2998 colon and more than 100 µM in the assay with NCI-H522 lung.

As to `COc1ccc(C2OC(=O)c3ccc4ccccc4c32)c(C)c1` (stereo not given), the TGI in the assay on CCRF-CEM leukemia is more than 100 µM; in the assay on ACHN renal, more than 100 µM; in the assay on MALME-3M melanoma, more than 100 µM; with OVCAR-3 ovarian, 53.1 µM; with SF-268 CNS, more than 100 µM; in the assay on 786-0 renal, 54 µM. The TGI in the assay with RXF 393 renal is more than 65.9 µM; in the assay on OVCAR-5 ovarian, more than 100 µM; with HCC-2998 colon it was 12.3 µM; with NCI-H522 lung it was 20.9 µM.

With `CC[C@H](Nc1ncnc2nc[nH]c12)c1nc2cccc(F)c2c(=O)n1-c1ccccc1`, the GI50 with CCRF-CEM leukemia is 12.2 µM; with ACHN renal, 10.7 µM; with MALME-3M melanoma, 17.2 µM; in the assay on OVCAR-3 ovarian, 10.2 µM; in the assay with SF-268 CNS, 19.2 µM; with 786-0 renal, 4.29 µM. For the same compound, the GI50 in the assay on RXF 393 renal is 1.35 µM; with OVCAR-5 ovarian, 45 µM; in the assay with HCC-2998 colon, 58.6 µM; in the assay with NCI-H522 lung, 28.8 µM. Also, the TGI in the assay with CCRF-CEM leukemia, in the assay on ACHN renal, in the assay on MALME-3M melanoma, with OVCAR-3 ovarian, in the assay on SF-268 CNS and with 786-0 renal was more than 100 µM in each case. Also, the TGI in the assay with RXF 393 renal was 17.4 µM; with OVCAR-5 ovarian it was more than 100 µM; in the assay with HCC-2998 colon, more than 100 µM; in the assay on NCI-H522 lung, more than 100 µM.
